We go through 13 compounds from PubChem BioAssay AID328 (DTP/NCI, 2004).

Molecules are shown by their SMILES. “And” between values parts separate entries of the source, which are not always exact repeats. Identical values can stand only once. Toxic doses and inconclusive results are not listed.

This test deals with BDF1 mice, P388 leukemia ip, median survival T/C. The test can be described thus: NCI In Vivo Anticancer Drug Screen. Data for tumor model P388 Leukemia (intraperitoneal) in B6D2F1 (BDF1) mice. The settings on record: endpoint: median survival time, higher = longer survival. Summed up:
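Read-out is survival of treated animals expressed relative to the vehicle group, as a T/C ratio.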

Where [1] appears, read: dose: 100.0 mg/kg/injection, schedule: Q04DX003 (ip), vehicle: saline with Tween-80.
The mark [2] stands for this setting: dose: 100.0 mg/kg/injection, schedule: Q01DX009 (ip), vehicle: Klucel (hydroxypropylcellulose) (HPC).
The mark [3] stands for this setting: dose: 50.0 mg/kg/injection, schedule: Q01DX009 (ip), vehicle: saline with Tween-80.
The mark [4] stands for this setting: dose: 100.0 mg/kg/injection, schedule: Q01DX009 (ip), vehicle: saline with Tween-80.
[5] abbreviates: dose: 200.0 mg/kg/injection, schedule: Q01DX009 (ip), vehicle: saline with Tween-80.
The mark [6] stands for this setting: dose: 25.0 mg/kg/injection, schedule: Q01DX009 (ip), vehicle: saline.
Setting [7] is: dose: 50.0 mg/kg/injection, schedule: Q01DX009 (ip), vehicle: saline.
The mark [8] stands for this setting: dose: 100.0 mg/kg/injection, schedule: Q01DX009 (ip), vehicle: saline.

For the compound `COc1ccc(CC2c3cc(OC)c(OC)cc3CCN2C)cc1OC` (centres undefined), where the note is “dose: 50.0 mg/kg/injection, schedule: Q01DX005 (ip), vehicle: saline with Tween-80”, the T/C is 90 % of control.

As for `NC(=S)N1N=C(c2cccc([N+](=O)[O-])c2)CCC1=O`, the T/C is, setting by setting: under setting [1], 100 % of control; (dose: 400.0 mg/kg/injection, schedule: Q04DX003 (ip), vehicle: saline with Tween-80) 100 % of control.

Regarding `c1ccc(C2=C(c3ccccc3)C23SCCS3)cc1`, the T/C under setting [2] is 113 % of control; the T/C (dose: 100.0 mg/kg/injection, schedule: Q04DX003 (ip), vehicle: Klucel (hydroxypropylcellulose) (HPC)) is 104 % of control; the T/C (dose: 200.0 mg/kg/injection, schedule: Q01DX009 (ip), vehicle: Klucel (hydroxypropylcellulose) (HPC)) is 95 % of control; the T/C (dose: 200.0 mg/kg/injection, schedule: Q04DX003 (ip), vehicle: Klucel (hydroxypropylcellulose) (HPC)) is 113 % of control; the T/C (dose: 400.0 mg/kg/injection, schedule: Q01DX009 (ip), vehicle: Klucel (hydroxypropylcellulose) (HPC)) is 86 % of control; the T/C (dose: 400.0 mg/kg/injection, schedule: Q04DX003 (ip), vehicle: Klucel (hydroxypropylcellulose) (HPC)) is 100 % of control.

In the case of `O=C(NP(=O)(N1CC1)N1CC1)c1cc(I)ccc1I`, the T/C (dose: 1.0 mg/kg/injection, schedule: Q01DX001 (oral), vehicle: saline) is 102 % of control; the T/C (dose: 1.0 mg/kg/injection, schedule: Q01DX009 (ip), vehicle: saline with Tween-80) is 110 % of control; the T/C (dose: 1.0 mg/kg/injection, schedule: Q01DX009 (ip), vehicle: saline) was 104 % of control and 202 % of control; the T/C (dose: 2.0 mg/kg/injection, schedule: Q01DX001 (oral), vehicle: saline) is 100 % of control; the T/C (dose: 2.0 mg/kg/injection, schedule: Q01DX009 (ip), vehicle: saline with Tween-80) is 101 % of control; the T/C (dose: 4.0 mg/kg/injection, schedule: Q01DX001 (oral), vehicle: saline) is 101 % of control. The T/C by setting is: (dose: 4.0 mg/kg/injection, schedule: Q01DX009 (ip), vehicle: saline with Tween-80) 105 % of control; (dose: 4.0 mg/kg/injection, schedule: Q01DX009 (ip), vehicle: saline) 96 % of control and 222 % of control; (dose: 8.0 mg/kg/injection, schedule: Q01DX001 (oral), vehicle: saline) 113 % of control; (dose: 8.0 mg/kg/injection, schedule: Q01DX009 (ip), vehicle: saline) 232 % of control and 150 % of control; (dose: 16.0 mg/kg/injection, schedule: Q01DX001 (oral), vehicle: saline) 113 % of control; (dose: 16.0 mg/kg/injection, schedule: Q01DX009 (ip), vehicle: saline with Tween-80) 214 % of control. Besides, the T/C is, setting by setting: (dose: 16.0 mg/kg/injection, schedule: Q01DX009 (ip), vehicle: saline) 177 % of control and 191 % of control; (dose: 32.0 mg/kg/injection, schedule: Q01DX009 (ip), vehicle: saline with Tween-80) 177 % of control; (dose: 32.0 mg/kg/injection, schedule: Q01DX009 (ip), vehicle: saline) 93 % of control and 207 % of control; (dose: 64.0 mg/kg/injection, schedule: Q01DX001 (oral), vehicle: saline) 150 % of control; (dose: 64.0 mg/kg/injection, schedule: Q01DX009 (ip), vehicle: saline with Tween-80) 112 % of control; (dose: 128.0 mg/kg/injection, schedule: Q01DX009 (ip), vehicle: saline) 123 % of control. In addition, the T/C (dose: 256.0 mg/kg/injection, schedule: Q01DX001 (oral), vehicle: saline) was 161 % of control.

Turning to `CC(C)(C)[N]1[Si](C)(C)[N](C(C)(C)C)[Sn]12[S][Sn]1([S]2)[N](C(C)(C)C)[Si](C)(C)[N]1C(C)(C)C`, the T/C was 100 % of control under setting [3], 94 % of control under setting [4] and 86 % of control under setting [5].

Take `CC(C)(C)c1ccc(Sc2cccc3c2C(=O)c2ccccc2C3)cc1`: the T/C under setting [3] was 92 % of control, the T/C under setting [4] was 89 % of control and the T/C under setting [5] was 89 % of control.

With `COc1cc(C2=CC(OC)(OC)C=C(C(C)(C)C)C2=O)c(O)c(C(C)(C)C)c1`, the T/C by setting is: under setting [3], 105 % of control; under setting [4], 108 % of control; under setting [5], 112 % of control.

In the case of `O=C(C[n+]1cc2ccccc2c2ccccc21)c1ccccc1`, the T/C (dose: 25.0 mg/kg/injection, schedule: Q01DX009 (ip), vehicle: Klucel (hydroxypropylcellulose) (HPC)) was 104 % of control; the T/C (dose: 35.0 mg/kg/injection, schedule: Q01DX009 (ip), vehicle: Klucel (hydroxypropylcellulose) (HPC)) was 100 % of control and 108 % of control; the T/C (dose: 50.0 mg/kg/injection, schedule: Q01DX009 (ip), vehicle: Klucel (hydroxypropylcellulose) (HPC)) was 100 % of control and 120 % of control; the T/C (dose: 75.0 mg/kg/injection, schedule: Q01DX009 (ip), vehicle: Klucel (hydroxypropylcellulose) (HPC)) is 115 % of control; the T/C under setting [2] was 114 % of control.

Regarding `CN1CCN(CCCN2c3ccccc3Sc3ccc(C(F)(F)F)cc32)CC1`, the T/C is, setting by setting: (dose: 6.25 mg/kg/injection, schedule: Q01DX009 (ip), vehicle: saline) 109 % of control; (dose: 9.37 mg/kg/injection, schedule: Q01DX009 (ip), vehicle: saline) 118 % of control; (dose: 9.37 mg/kg/injection, schedule: Q04DX003 (ip), vehicle: saline with Tween-80) 117 % of control; (dose: 12.5 mg/kg/injection, schedule: Q01DX009 (ip), vehicle: saline) 109 % of control and 118 % of control; (dose: 18.75 mg/kg/injection, schedule: Q04DX003 (ip), vehicle: saline with Tween-80) 121 % of control; (dose: 44.0 mg/kg/injection, schedule: Q01DX009 (ip), vehicle: saline with Tween-80) 107 % of control. The T/C was 113 % of control (dose: 50.0 mg/kg/injection, schedule: Q04DX003 (ip), vehicle: saline with Tween-80); 115 % of control (dose: 75.0 mg/kg/injection, schedule: Q04DX003 (ip), vehicle: saline); 150 % of control and 163 % of control under setting [1].

Take `O=C(c1cc(Cl)cc(Cl)c1)N1CC1`: the T/C is, setting by setting: under setting [6], 106 % of control; (dose: 25.0 mg/kg/injection, schedule: Q04DX003 (ip), vehicle: saline) 100 % of control; under setting [7], 113 % of control; (dose: 50.0 mg/kg/injection, schedule: Q04DX003 (ip), vehicle: saline) 100 % of control; under setting [8], 103 % of control; (dose: 100.0 mg/kg/injection, schedule: Q04DX003 (ip), vehicle: saline) 98 % of control. For the same compound, the T/C runs as follows: (dose: 200.0 mg/kg/injection, schedule: Q01DX009 (ip), vehicle: saline) 113 % of control; (dose: 200.0 mg/kg/injection, schedule: Q04DX003 (ip), vehicle: saline) 114 % of control; (dose: 400.0 mg/kg/injection, schedule: Q01DX009 (ip), vehicle: saline) 113 % of control; (dose: 400.0 mg/kg/injection, schedule: Q04DX003 (ip), vehicle: saline) 106 % of control.

As to `CCCCCCCCCCCCCCCCOc1ccc(CC)cc1`, the T/C (dose: 50.0 mg/kg/injection, schedule: Q01DX001 (ip), vehicle: saline with Tween-80) was 95 % of control; the T/C (dose: 100.0 mg/kg/injection, schedule: Q01DX001 (ip), vehicle: saline with Tween-80) was 90 % of control; the T/C (dose: 200.0 mg/kg/injection, schedule: Q01DX001 (ip), vehicle: saline with Tween-80) was 100 % of control.

Consider `OCc1ccn2c1C(O)CC2` (centres undefined), for which the T/C (dose: 12.5 mg/kg/injection, schedule: Q01DX009 (ip), vehicle: other) was 112 % of control; the T/C (dose: 25.0 mg/kg/injection, schedule: Q01DX009 (ip), vehicle: other) was 102 % of control; the T/C under setting [6] was 115 % of control; the T/C (dose: 50.0 mg/kg/injection, schedule: Q01DX009 (ip), vehicle: other) was 100 % of control; the T/C under setting [7] was 165 % of control; the T/C (dose: 100.0 mg/kg/injection, schedule: Q01DX009 (ip), vehicle: other) is 100 % of control. Besides, the T/C under setting [8] was 240 % of control and 100 % of control.

`CCOC(=O)Cc1csc(=NC(=O)c2ccccc2)n1N`: the T/C by setting is: under setting [3], 108 % of control; under setting [4], 115 % of control; under setting [5], 101 % of control.
